Here are results for one molecule from patent US20240239764A1, “SUBSTITUTED AMINOBENZYL HETEROARYL COMPOUNDS AS EGFR AND/OR PI3K INHIBITORS” (Mekanistic Therapeutics, priority 2020, published 2024).

One data set deals with DNA-PK (Homo sapiens, UniProt P78527). Put plainly: Z′-LYTE / ADAPTA kinase assay, DNA-PK. It counts as biochemical. The following applies: read-out: DNA-PK % Inh. @ 100 nM. The source says: (§1) The Z′-LYTE® biochemical assay employs a fluorescence-based, coupled-enzyme format and is based on the differential sensitivity of phosphorylated and non-phosphorylated peptides to proteolytic cleavage (FIG. 6). The peptide substrate is labeled with two fluorophores—one at each end—that make up a FRET pair. In the primary reaction, the kinase transfers the gamma-phosphate of ATP to a single tyrosine, serine or threonine residue in a synthetic FRET-peptide. In the secondary reaction, a site-specific protease recognizes and cleaves non-phosphorylated FRET-peptides. Phosphorylation of FRET-peptides suppresses cleavage by the Development Reagent. […] A ratiometric method, which calculates the ratio (the Emission Ratio) of donor emission to acceptor emission after excitation of the donor fluorophore at 400 nm, is used to quantitate reaction progress.
(§2) A significant benefit of this ratiometric method for quantitating reaction progress is the elimination of well-to-well variations in FRET-peptide concentration and signal intensities. […]
(§3) Both cleaved and uncleaved FRET-peptides contribute to the fluorescence signals and therefore to the Emission Ratio. The extent of phosphorylation of the FRET-peptide can be calculated from the Emission Ratio. […]

Data set [1] can be described thus: Solubility determination (PBS 7.4, SIF, SGF). Type of data set: physicochemical. As to conditions: simulated intestinal fluid (SIF), fassgf or other biorelevant, kinetic from dmso stock, simulated intestinal fluid pH 6.8, 25° C., read-out: Solubility SIF. As to the method: Preparation of stock solutions: The stock solutions of test compounds and control compound diclofenac were prepared in DMSO at the concentrations of 10 mM.
Simulated Gastric Fluid (SGF): An aqueous mixture including hydrochloric acid, sodium chloride, and pepsin (pH=1.2).
Simulated Intestinal Fluid (SIF): Prepared by dissolving 6.8 g of KH2PO4 into about 500 mL ultrapure water and adjust the solution to a pH 6.8 with 0.1 M NaOH. 10 g trypsin is then dissolved into ultrapure water. The two solutions are mixed well and diluted with ultrapure water to a final volume of 1000 mL.
485 μL of (SIF, SGF, PBS 7.4, FESSIF, or FESSGF) was added into each vial of the cap-less Solubility Sample plate. The assay was performed in duplicate. Add one stir stick to each vial and seal using a molded PTFE/Silicone plug. […] After completion of the 2 hours, plugs were removed and the stir sticks were removed using a big magnet, the samples from the Solubility Sample plate were transferred into the filter plate. Using the Vacuum Manifold, all the samples were filtered. Aliquot of 5 μL and 5 μL DMSO were taken from the filtrate followed by addition of 490 μL of a mixture of H2O and acetonitrile containing internal standard (1:1). A certain proportion of ultrapure water was used to dilute the diluent according to the peak shape. The dilution factor was changed according to the solubility values and the LC-MS signal response.
Preparation of 300 μM standards (STD): From the 10 mM DMSO STD plate, 6 μL was transferred into the remaining empty plate, and then 194 μL of DMSO was added to that plate to have a STD concentration of 300 μM. From the 300 μM DMSO STD plate, 5 μL DMSO STD and 5 μL SIF was transferred into the remaining empty plate, and then 490 μL of a mixture of H2O and acetonitrile containing internal standard (1:1) was added to that plate to have a final STD concentration of 3 μM. A certain proportion of ultrapure water was used to dilute the diluent according to the peak shape. The concentrations of the standard samples were changed according to the LC-MS signal response.
Procedure for sample analysis: The plate was placed into the well plate autosampler. The samples were evaluated by LC-MS/MS analysis.
Data analysis: All calculations were carried out using Microsoft Excel. The filtrate was analyzed and quantified against a standard of known concentration using LC coupled with mass spectral peak identification and quantitation. Solubility values of the test compound and control compound were calculated as follows: […]
Any value of the compounds that was not within the specified limits was rejected and the experiment was repeated.

For another data set, the target named is EGFR (Homo sapiens, UniProt P00533). Put plainly: Z′-LYTE / ADAPTA kinase assay, EGFR. Type of data set: biochemical.
Text: as §1, §2, §3

The target in a further data set is PI3Ka (Homo sapiens, UniProt P42336). The data set is described as follows: Z′-LYTE / ADAPTA kinase assay, PI3Ka. Type of data set: biochemical. The source says: The Z′-LYTE® biochemical assay employs a fluorescence-based, coupled-enzyme format and is based on the differential sensitivity of phosphorylated and non-phosphorylated peptides to proteolytic cleavage (FIG. 6). The peptide substrate is labeled with two fluorophores—one at each end—that make up a FRET pair. In the primary reaction, the kinase transfers the gamma-phosphate of ATP to a single tyrosine, serine or threonine residue in a synthetic FRET-peptide. In the secondary reaction, a site-specific protease recognizes and cleaves non-phosphorylated FRET-peptides. Phosphorylation of FRET-peptides suppresses cleavage by the Development Reagent. Cleavage disrupts FRET between the donor (i.e., coumarin) and acceptor (i.e., fluorescein) fluorophores on the FRET-peptide, whereas uncleaved, phosphorylated FRET-peptides maintain FRET. A ratiometric method, which calculates the ratio (the Emission Ratio) of donor emission to acceptor emission after excitation of the donor fluorophore at 400 nm, is used to quantitate reaction progress.
A significant benefit of this ratiometric method for quantitating reaction progress is the elimination of well-to-well variations in FRET-peptide concentration and signal intensities. As a result, the assay yields very high Z′-factor values (>0.7) at a low percent phosphorylation.
Both cleaved and uncleaved FRET-peptides contribute to the fluorescence signals and therefore to the Emission Ratio. The extent of phosphorylation of the FRET-peptide can be calculated from the Emission Ratio.
Enzyme: The ADAPTA universal kinase assay is a homogenous, fluorescent based immunoassay for the detection of ADP. In contrast to ATP depletion assays, the ADAPTA assay is extremely sensitive to ADP formation such that a majority of the signal change occurs in the first 10-20% conversion of ATP to ADP. This makes the ADAPTA universal kinase assay ideally suited for use with low activity kinases.
The principle of the ADAPTA universal kinase assay is outlined below. The assay itself can be divided into two phases: a kinase reaction phase, and an ADP detection phase. In the kinase reaction phase, all components required for the kinase reaction are added to the well, and the reaction is allowed to incubate for 60 minutes. After the reaction, a detection solution consisting of a europium labeled anti-ADP antibody, an AlexaFluor® 647 labeled ADP tracer, and EDTA (to stop the kinase reaction) is added to the assay well. ADP formed by the kinase reaction (in the absence of an inhibitor) will displace the Alexa Fluor®647 labeled ADP tracer from the antibody, resulting in a decrease in the TR-FRET signal.
Test Compounds: The Test Compounds are screened in 1% DMSO (final) in the well. For 10 point titrations, 3-fold serial dilutions are conducted from the starting concentration.
Peptide/Kinase Mixtures: All Peptide/Kinase Mixtures are diluted to a 2× working concentration in the appropriate Kinase Buffer.
ATP Solution: All ATP Solutions are diluted to a 4× working concentration in Kinase Buffer (50 mM HEPES pH 7.5, 0.01% BRIJ-35, 10 mM MgCl2, 1 mM EGTA). ATP Km apparent is previously determined using a Z′-LYTE® assay.
Development Reagent Solution: The Development Reagent is diluted in Development Buffer.
10× Novel PKC Lipid Mix: 2 mg/mL Phosphatidyl Serine, 0.2 mg/mL DAG in 20 mM HEPES, pH 7.4, 0.3% CHAPS. For 5 mL 10× Novel PKC Lipid Mix: 1. Add 10 mgs Phosphatidyl Serine (Avanti Polar Lipids Part #8400032C or 840039C) and 1 mg DAG (Avanti Polar Lipids Part #800811 C) to a glass tube. 2. Remove the chloroform from lipid mixture by evaporating to a clear, thin film under a stream of nitrogen. Continuous rotation of the tube, at an angle to ensure maximum surface area of the lipid solution, will promote the thinnest film. 3. Add 5 mLs resuspension buffer, 20 mM HEPES, 0.3% CHAPS, pH 7.4, to the dried lipid mix 4. Heat gently to 50-60° C. for 1-2 minutes and vortex in short intervals until the lipids are dissolved to a clear or slightly hazy solution. […]

Sequence of PI3Ka (P42336 whole entry): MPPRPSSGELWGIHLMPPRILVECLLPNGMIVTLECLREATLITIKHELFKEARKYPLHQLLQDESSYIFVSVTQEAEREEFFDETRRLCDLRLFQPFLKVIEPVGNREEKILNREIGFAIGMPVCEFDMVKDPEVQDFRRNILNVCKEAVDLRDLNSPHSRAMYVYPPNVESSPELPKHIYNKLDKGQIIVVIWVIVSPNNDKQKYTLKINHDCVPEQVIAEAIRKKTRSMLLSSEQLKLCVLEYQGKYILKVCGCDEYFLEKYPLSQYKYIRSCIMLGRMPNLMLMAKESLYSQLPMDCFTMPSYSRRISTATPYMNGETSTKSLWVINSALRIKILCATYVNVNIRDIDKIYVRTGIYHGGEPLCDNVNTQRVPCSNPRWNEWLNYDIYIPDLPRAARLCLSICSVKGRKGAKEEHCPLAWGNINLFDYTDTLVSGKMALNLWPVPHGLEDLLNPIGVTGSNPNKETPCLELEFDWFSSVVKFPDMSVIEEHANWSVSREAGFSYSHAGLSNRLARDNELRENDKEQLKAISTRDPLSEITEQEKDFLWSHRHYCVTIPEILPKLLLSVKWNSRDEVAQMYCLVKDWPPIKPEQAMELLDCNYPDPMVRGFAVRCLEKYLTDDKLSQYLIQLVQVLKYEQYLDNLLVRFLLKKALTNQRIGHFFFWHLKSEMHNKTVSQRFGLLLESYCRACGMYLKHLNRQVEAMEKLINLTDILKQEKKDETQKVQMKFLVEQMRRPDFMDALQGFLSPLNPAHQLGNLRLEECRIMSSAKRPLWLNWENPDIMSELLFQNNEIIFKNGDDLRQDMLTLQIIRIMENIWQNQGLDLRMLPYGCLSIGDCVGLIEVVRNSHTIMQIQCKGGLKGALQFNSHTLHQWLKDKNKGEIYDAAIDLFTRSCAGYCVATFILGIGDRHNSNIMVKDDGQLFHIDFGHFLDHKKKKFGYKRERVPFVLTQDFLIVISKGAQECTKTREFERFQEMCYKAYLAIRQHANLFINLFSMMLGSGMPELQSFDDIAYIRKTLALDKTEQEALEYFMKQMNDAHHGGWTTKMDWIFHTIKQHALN
Sequence of PI3Ka (P27986 whole entry partner): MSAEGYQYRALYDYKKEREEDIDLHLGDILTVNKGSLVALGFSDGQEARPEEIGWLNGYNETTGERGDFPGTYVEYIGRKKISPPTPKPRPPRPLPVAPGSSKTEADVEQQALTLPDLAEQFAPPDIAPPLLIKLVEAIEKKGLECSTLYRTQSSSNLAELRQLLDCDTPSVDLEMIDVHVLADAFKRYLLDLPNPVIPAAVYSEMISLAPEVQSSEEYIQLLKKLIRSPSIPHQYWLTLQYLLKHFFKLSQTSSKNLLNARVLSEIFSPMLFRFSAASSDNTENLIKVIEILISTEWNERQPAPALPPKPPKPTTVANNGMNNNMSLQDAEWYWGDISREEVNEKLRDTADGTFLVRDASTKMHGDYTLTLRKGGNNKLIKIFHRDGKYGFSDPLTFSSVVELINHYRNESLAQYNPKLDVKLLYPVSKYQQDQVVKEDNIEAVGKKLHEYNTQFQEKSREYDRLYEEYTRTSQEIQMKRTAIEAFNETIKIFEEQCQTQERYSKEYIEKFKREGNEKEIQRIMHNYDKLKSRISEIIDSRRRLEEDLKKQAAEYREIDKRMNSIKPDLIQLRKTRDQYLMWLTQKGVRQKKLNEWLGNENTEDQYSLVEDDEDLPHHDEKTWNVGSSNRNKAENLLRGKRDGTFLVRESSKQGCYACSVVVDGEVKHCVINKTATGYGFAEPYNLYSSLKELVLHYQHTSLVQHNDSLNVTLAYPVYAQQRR
Sequence of EGFR (P00533 25-1210): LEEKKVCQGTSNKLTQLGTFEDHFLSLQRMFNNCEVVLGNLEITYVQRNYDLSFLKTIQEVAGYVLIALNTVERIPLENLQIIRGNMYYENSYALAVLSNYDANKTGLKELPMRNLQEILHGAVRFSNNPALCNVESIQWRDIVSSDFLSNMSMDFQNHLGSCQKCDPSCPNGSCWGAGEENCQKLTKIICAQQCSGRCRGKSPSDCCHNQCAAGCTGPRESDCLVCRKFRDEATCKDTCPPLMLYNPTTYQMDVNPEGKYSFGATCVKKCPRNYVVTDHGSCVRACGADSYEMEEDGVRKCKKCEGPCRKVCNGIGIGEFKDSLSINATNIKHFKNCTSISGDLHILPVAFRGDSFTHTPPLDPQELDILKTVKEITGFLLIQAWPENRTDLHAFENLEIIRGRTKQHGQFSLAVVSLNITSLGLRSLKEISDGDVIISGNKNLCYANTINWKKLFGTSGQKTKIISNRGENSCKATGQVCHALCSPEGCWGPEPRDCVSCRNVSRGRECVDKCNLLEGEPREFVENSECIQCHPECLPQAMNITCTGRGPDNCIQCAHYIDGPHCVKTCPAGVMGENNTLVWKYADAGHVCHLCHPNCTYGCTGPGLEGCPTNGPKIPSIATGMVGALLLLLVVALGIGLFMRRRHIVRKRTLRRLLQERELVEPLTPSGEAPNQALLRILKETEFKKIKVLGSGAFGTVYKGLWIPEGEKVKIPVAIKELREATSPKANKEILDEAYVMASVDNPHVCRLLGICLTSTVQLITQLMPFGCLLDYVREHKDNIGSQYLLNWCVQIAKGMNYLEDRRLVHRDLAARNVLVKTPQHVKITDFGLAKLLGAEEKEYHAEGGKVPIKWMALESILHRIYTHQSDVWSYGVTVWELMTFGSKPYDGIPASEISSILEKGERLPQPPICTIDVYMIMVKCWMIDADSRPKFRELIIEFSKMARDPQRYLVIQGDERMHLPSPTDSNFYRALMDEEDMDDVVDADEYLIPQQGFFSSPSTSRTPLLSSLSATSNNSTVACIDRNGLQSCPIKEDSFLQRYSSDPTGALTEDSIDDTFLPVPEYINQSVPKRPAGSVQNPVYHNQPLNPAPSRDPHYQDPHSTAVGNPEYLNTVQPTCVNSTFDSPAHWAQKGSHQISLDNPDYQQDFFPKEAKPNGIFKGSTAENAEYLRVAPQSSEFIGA

By solubility is commonly meant the dissolved amount per volume that the medium holds. By IC50 is commonly meant the concentration that inhibits the measured activity by half. A lower IC50 goes with higher potency. Turning to `CS(=O)(=O)Nc1cncc(-c2ccc3ncnc(NCc4ccccc4)c3c2)c1` [Comparative Compound 3, reference compound], the inhibition at 0.1 µM at DNA-PK is > 90%; at EGFR (read-out: EGFR % Inh. @ 100 nM), > 90%; on PI3Ka (read-out: PI3Ka % Inh. @100 nM), 80 to 90%. The solubility at 2 h in data set [1] is ≤ 20 µM. Moreover, the 50% inhibitory concentration (IC50) against EGFR and against PI3Ka was 20 to 200 nM in each case.
